In patent US10087165B2, “Fluoroquinolones and use thereof to treat bacterial infections” (UNIVERSITÉ PIERRE ET MARIE CURIE—PARIS 6 (UPMC), priority 2014, dated 2018):
≈ marks a conversion by molar mass, not a printed value. Read-outs that look alike come from different tables or passages of the source.

Key:
[1] = tested on: M. tuberculosis H37Rv strain; test: Minimal effective dosage in the murine TB model; assay type: in vivo, Balb/C/J female mice; design: Mice weight: unit not given here; conditions: for Mice weight / Spleen weight / Survival: No. death: Gavage; for Survival: No. death: 10 mice
Protocol: Four-week-old Balb/C/J female mice were infected intravenously with 10^6 CFU of M. tuberculosis H37Rv strain. On the day following the infection (D1), 10 mice were sacrificed to determine the exact baseline values of spleen weight and CFU counts in the lungs. The remaining mice were allocated to the following treatment groups: an untreated negative control group for survival monitoring, a positive control group treated for 1 month with isoniazid (INH) 25 mg/kg/d, […] test groups were treated with Quin18 and Quin19 at increasing dosages (25 mg/kg/d; 50 mg/kg/d; 100 mg/kg/d; 150 mg/kg/d) given by oral gavage, and two additional test groups were treated intravenously with Quin18 25 mg/kg/d and 100 mg/kg/d. All the groups contained 10 mice and were treated from D1 to D28, 5 days a week. The parameters used for assessing the severity of infection and the effectiveness of treatments were survival rate, spleen weight, gross lung lesions and CFU counts in the lungs.
The minimal effective dosage was defined as the minimal dosage able to prevent mortality of the mice, spleen enlargement and the occurrence of gross lung lesions. CFU counts were considered to be a more precise way of determining the dose-ranging efficacy of Quin18 and Quin19.
Survival rates between groups were plotted on a Kaplan-Meier curve and compared using the log-rank test.

[2] = assay type: physicochemical
Protocol: A solubility assay was performed on both Quin 18 and Quin 19 in appropriated vehicles for per os injection into mice to obtain a fine suspension at maximal concentration (MC) of each compound. The solubility of each compound in each vehicle was evaluated by observation of potential precipitate.

[3] = Acute toxicity in healthy female CD-1 mice after a single oral treatment; assay type: in vivo
Protocol: The aim of this study was to evaluate the acute toxicity of two new compounds (Quin 18 and Quin 19) in healthy female CD-1 after a single oral treatment at D0.
Toxicity of treatment was evaluated by monitoring of animals (general signs of pharmacologic and toxicity effects, morbidity, mortality and evident signs of toxicity, as well as twice-weekly monitoring for clinical signs and body weight) until the end of the experiment (D14). At the end of the experiment, animals were sacrificed and macroscopic autopsy was performed.
Mice of each group were administered by per os (PO) injection at 10 ml/kg according to the standard operating procedure No. TEC-078. The recommended volume for per os (PO) administration in mice is 10 ml/kg.
Morbidity, mortality and evident signs of toxicity of mice were considered daily from D0 until the end of the experiment (D14 or D15).
Monitoring of mice for detailed behavioral and clinical observations was performed twice a week from D0 until the end of the experiment (D14 or D15) according to the standard operating procedures No. TEC-192.
Body weight of mice was monitored at D1, D2 and then twice a week until the end of the experiment (D14 or D15) according to the standard operating procedures No. TEC-108. Weight loss was assessed against the starting weight of each mouse at D0.
During the course of the experiment, animals were sacrificed if any of the following occurs: • Signs of suffering (cachexia, weakening, difficulty to move or to eat), • Compound toxicity (hunching, convulsions), • 25% body weight loss on any day. Sacrifice of Animals
At D14 or D15, animals were be sacrificed by CO2 inhalation and a macroscopic autopsy was performed.

M. tuberculosis H37Rv = test: microbe, parasite or virus in culture; assay type: cell-based; conditions: for MIC: Mycobacterium tuberculosis
[4] = target: M. tuberculosis DNA gyrase (Mycobacterium tuberculosis, UniProt P9WG45+P9WG47); test: biochemical
Sequence of M. tuberculosis DNA gyrase (P9WG47 whole entry): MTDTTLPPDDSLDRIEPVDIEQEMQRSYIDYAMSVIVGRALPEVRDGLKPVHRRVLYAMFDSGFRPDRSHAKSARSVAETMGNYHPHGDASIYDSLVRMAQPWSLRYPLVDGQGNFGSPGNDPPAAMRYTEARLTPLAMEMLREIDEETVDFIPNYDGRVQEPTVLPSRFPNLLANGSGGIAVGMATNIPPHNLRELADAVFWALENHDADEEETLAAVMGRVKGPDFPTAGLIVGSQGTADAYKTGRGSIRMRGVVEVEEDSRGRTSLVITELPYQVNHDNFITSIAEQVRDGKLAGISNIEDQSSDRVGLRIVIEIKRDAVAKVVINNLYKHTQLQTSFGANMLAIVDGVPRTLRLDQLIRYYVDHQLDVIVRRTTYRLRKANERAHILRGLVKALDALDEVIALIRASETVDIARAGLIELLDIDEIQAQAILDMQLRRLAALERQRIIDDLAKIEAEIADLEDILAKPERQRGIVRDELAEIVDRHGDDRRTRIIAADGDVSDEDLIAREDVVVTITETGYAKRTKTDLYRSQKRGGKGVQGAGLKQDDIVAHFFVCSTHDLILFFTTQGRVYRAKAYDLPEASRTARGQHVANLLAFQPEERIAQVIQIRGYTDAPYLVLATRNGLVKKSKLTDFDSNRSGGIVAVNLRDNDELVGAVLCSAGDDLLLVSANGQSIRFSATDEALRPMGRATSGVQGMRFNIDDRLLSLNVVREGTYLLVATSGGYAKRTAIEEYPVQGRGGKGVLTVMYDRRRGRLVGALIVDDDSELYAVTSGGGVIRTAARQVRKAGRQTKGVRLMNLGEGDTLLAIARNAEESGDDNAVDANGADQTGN
Sequence of M. tuberculosis DNA gyrase (P9WG45 whole entry): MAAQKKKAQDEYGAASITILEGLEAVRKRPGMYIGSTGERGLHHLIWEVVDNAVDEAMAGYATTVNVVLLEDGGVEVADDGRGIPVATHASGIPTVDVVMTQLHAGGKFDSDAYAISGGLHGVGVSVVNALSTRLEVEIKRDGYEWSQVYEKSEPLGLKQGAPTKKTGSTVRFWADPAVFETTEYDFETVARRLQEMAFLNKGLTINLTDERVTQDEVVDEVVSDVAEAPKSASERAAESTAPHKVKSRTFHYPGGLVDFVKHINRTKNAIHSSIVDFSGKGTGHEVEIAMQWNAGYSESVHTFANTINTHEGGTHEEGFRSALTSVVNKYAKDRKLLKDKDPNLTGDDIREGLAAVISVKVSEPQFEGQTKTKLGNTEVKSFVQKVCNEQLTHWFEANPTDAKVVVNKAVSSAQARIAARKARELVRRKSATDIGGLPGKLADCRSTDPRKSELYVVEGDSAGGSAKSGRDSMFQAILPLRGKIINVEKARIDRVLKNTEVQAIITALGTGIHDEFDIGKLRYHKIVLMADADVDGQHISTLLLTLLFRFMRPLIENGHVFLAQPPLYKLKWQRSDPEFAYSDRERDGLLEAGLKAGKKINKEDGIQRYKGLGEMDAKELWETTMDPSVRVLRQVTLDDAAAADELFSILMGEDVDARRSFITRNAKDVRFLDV

## CCCCCCCCCCN1CCN(c2c(F)cc3c(=O)c(C(=O)O)cn(C4CC4)c3c2OC)CC1 [Quin 19, 1-cyclopropyl-7-(4-decylpiperazin-1-yl)-6-fluoro-8-methoxy-4-oxo-1,4-dihydroquinoline-3-carboxylic acid]
[1]; 25 mg/kg/j
  Mice weight: 19.3 ± 2.6
  Spleen weight: 332 ± 141.1 mg
[1]; 25 mg/kg/j, D1 to D28, 5 days a week
  Survival: No. death: 1
[1]; 50 mg/kg/j
  Mice weight: 18 ± 3.4
  Spleen weight: 305.6 ± 181.5 mg
  Survival: No. death: 2
[1]; 100 mg/kg/j
  Mice weight: 20.2 ± 1.3
  Spleen weight: 253 ± 127.2 mg
  Survival: No. death: 0
[1]; 150 mg/kg/j
  Mice weight: 20.7 ± 0.8
  Spleen weight: 222 ± 106.2 mg
  Survival: No. death: 0
[1]; given orally
  Efficacy in a mouse model of tuberculosis (in words): outstanding efficacy
[1]; whatever the dosage (25, 50, 100 and 150 mg/kg/d) and the administration route
  Survival compared with untreated group (in words): statistically superior to untreated group
[2]
  Excipient allowing the best solubilisation: corn oil
[3]; Group B1: 100 mg/kg PO Q1Dx1
  Loss of body weight (in words): did not exhibited any loss of body weight
[3]; Group B1: 100 mg/kg PO Q1Dx1, corn oil, with sonication
  Tolerance (in words): well tolerated
[3]; Group B1: 100 mg/kg PO Q1Dx1, with sonication, D1
  Mean body weight (MBW): 29.73 ± 0.83 g
[3]; Group B1: 100 mg/kg PO Q1Dx1, with sonication, D2
  Mean body weight (MBW): 29.9 ± 0.2 g
[3]; Group B1: 100 mg/kg PO Q1Dx1, with sonication, D3
  Mean body weight (MBW): 30.23 ± 0.4 g
[3]; Group B1: 100 mg/kg PO Q1Dx1, with sonication, D4
  Mean body weight (MBW): 30.5 ± 0.98 g
[3]; Group B1: 100 mg/kg PO Q1Dx1, with sonication, D7
  Mean body weight (MBW): 31.2 ± 0.1 g
[3]; Group B1: 100 mg/kg PO Q1Dx1, with sonication, D11
  Mean body weight (MBW): 32.17 ± 1.36 g
[3]; Group B1: 100 mg/kg PO Q1Dx1, with sonication, D14
  Mean body weight (MBW): 31.4 ± 0.44 g
[3]; Group B1: 100 mg/kg PO Q1Dx1, *one mouse had air bubble in the caecum
  Macroscopic autopsy: Observations: NTR*
[3]; Group B1: corn oil, 10 mg/ml with sonication, 100 mg/kg PO Q1Dx1, D0, 100 mg/kg
  Mean body weight (MBW): 31.67 ± 2.25 g
[3]; Group B2: 200 mg/kg PO Q1Dx1
  Loss of body weight (in words): did not exhibited any loss of body weight
[3]; Group B2: 200 mg/kg PO Q1Dx1, corn oil, with sonication
  Tolerance (in words): well tolerated
[3]; Group B2: 200 mg/kg PO Q1Dx1, with sonication, D1
  Mean body weight (MBW): 30.97 ± 0.4 g
[3]; Group B2: 200 mg/kg PO Q1Dx1, with sonication, D2
  Mean body weight (MBW): 30.93 ± 0.25 g
[3]; Group B2: 200 mg/kg PO Q1Dx1, with sonication, D3
  Mean body weight (MBW): 30.3 ± 0.85 g
[3]; Group B2: 200 mg/kg PO Q1Dx1, with sonication, D7
  Mean body weight (MBW): 31.6 ± 1.97 g
[3]; Group B2: 200 mg/kg PO Q1Dx1, with sonication, D10
  Mean body weight (MBW): 32.1 ± 3.2 g
[3]; Group B2: 200 mg/kg PO Q1Dx1, with sonication, D14
  Mean body weight (MBW): 31.9 ± 1.15 g
[3]; Group B2: 200 mg/kg PO Q1Dx1, sacrifice at end of study
  Macroscopic autopsy: Observations: NTR
[3]; Group B2: corn oil, 20 mg/ml with sonication, 200 mg/kg PO Q1Dx1, D0, 200 mg/kg
  Mean body weight (MBW): 30.67 ± 0.21 g
[3]; Group B3: 200 mg/kg PO Q1Dx1
  Loss of body weight (in words): did not exhibited any loss of body weight
[3]; Group B3: 200 mg/kg PO Q1Dx1, corn oil, without sonication
  Tolerance (in words): well tolerated
[3]; Group B3: 200 mg/kg PO Q1Dx1, without sonication, D1
  Mean body weight (MBW): 32.73 ± 1.46 g
[3]; Group B3: 200 mg/kg PO Q1Dx1, without sonication, D2
  Mean body weight (MBW): 32.5 ± 0.62 g
[3]; Group B3: 200 mg/kg PO Q1Dx1, without sonication, D4
  Mean body weight (MBW): 31.73 ± 0.9 g
[3]; Group B3: 200 mg/kg PO Q1Dx1, without sonication, D7
  Mean body weight (MBW): 32.2 ± 0.5 g
[3]; Group B3: 200 mg/kg PO Q1Dx1, without sonication, D11
  Mean body weight (MBW): 34.1 ± 1.51 g
[3]; Group B3: 200 mg/kg PO Q1Dx1, without sonication, D15
  Mean body weight (MBW): 35.43 ± 1.99 g
[3]; Group B3: 200 mg/kg PO Q1Dx1, sacrifice at end of study
  Macroscopic autopsy: Observations: NTR
[3]; Group B3: corn oil, 20 mg/ml without sonication, 200 mg/kg PO Q1Dx1, D0, 200 mg/kg
  Mean body weight (MBW): 33.6 ± 2.11 g
[3]; Group B4: 400 mg/kg PO 2Q1Dx1
  Loss of body weight (in words): did not exhibited any loss of body weight
[3]; Group B4: 400 mg/kg PO 2Q1Dx1, corn oil, without sonication
  Tolerance (in words): well tolerated
[3]; Group B4: 400 mg/kg PO 2Q1Dx1, without sonication, D1
  Mean body weight (MBW): 30.47 ± 2.2 g
[3]; Group B4: 400 mg/kg PO 2Q1Dx1, without sonication, D2
  Mean body weight (MBW): 30.47 ± 1.3 g
[3]; Group B4: 400 mg/kg PO 2Q1Dx1, without sonication, D5
  Mean body weight (MBW): 31.03 ± 1.55 g
[3]; Group B4: 400 mg/kg PO 2Q1Dx1, without sonication, D9
  Mean body weight (MBW): 31.77 ± 2.32 g
[3]; Group B4: 400 mg/kg PO 2Q1Dx1, without sonication, D13
  Mean body weight (MBW): 31.7 ± 1.18 g
[3]; Group B4: 400 mg/kg PO 2Q1Dx1, without sonication, D14
  Mean body weight (MBW): 32.53 ± 1 g
[3]; Group B4: 400 mg/kg PO 2Q1Dx1, sacrifice at end of study
  Macroscopic autopsy: Observations: NTR
[3]; Group B4: corn oil, 20 mg/ml without sonication, 400 mg/kg PO 2Q1Dx1 (2 hours between the 2 injections), D0, 400 mg/kg
  Mean body weight (MBW): 31.03 ± 1.86 g
[3]; all treated groups
  Autopsy, macroscopic observations (in words): No particular sign was observed
[3]; in corn oil, PO, female mice
  Dose up to which well tolerated (maximal solubility): up to 400 mg/kg
[3]; mice
  Signs of toxicity at the dose levels tested (in words): no signs of toxicity
M. tuberculosis H37Rv; H37Rv
  antibacterial activity against wild-type M. tuberculosis strain (in words): high antibacterial activity
M. tuberculosis H37Rv; H37RV, Table 3, read-out: MIC M. tuberculosis H37Rv
  MIC: < 0.12 µM
M. tuberculosis H37Rv; H37Rv, Table 2, read-out: MIC (M. tuberculosis) WT
  MIC: 0.25 µM (≈ 0.125 µg/mL)
[4]
  IC50: 150 µM
